Measurements reported in patent US20200369728A1, “PEPTIDOMIMETIC MACROCYCLES AND USES THEREOF” (Aileron Therapeutics, Inc., priority 2015, published 2020).
Bridge positions count the residues as written; N and C are the ends. Square brackets hold non-standard residues; d marks the D form. Peptide text beside a SMILES is read from it. R8 = C=CCCCCCC[C@@](C)(N)C(=O)O; Cba = N[C@@H](CC1CCC1)C(=O)O; S5 = C=CCCC[C@](C)(N)C(=O)O; Nle = CCCC[C@H](N)C(=O)O

What was measured:
[1] = test system: SJSA-1 cells; test: Cell lysis by peptidomimetic macrocycles (LDH release); assay type: cell-based; conditions: SJSA-1, 1 h
Description: SJSA-1 cells were plated out one day in advance in clear flat-bottom plates (Costar, catalog number 353072) at 7500 cells/well with 100 ul/well of growth media, leaving row H columns 10-12 empty for media alone. On the day of the assay, media was exchanged with RPMI 1% FBS media, 90 uL of media per well.
10 mM stock solutions of the peptidomimetic macrocycles were prepared in 100% DMSO. Peptidomimetic macrocycles were then diluted serially in 100% DMSO, and then further diluted 20-fold in sterile water to prepare working stock solutions in 5% DMSO/water of each peptidomimetic macrocycle at concentrations ranging from 500 μM to 62.5 μM.
10 μL of each compound was added to the 90 uL of SJSA-1 cells to yield final concentrations of 50 μM to 6.25 μM in 0.5% DMSO-containing media. The negative control (non-lytic) sample was 0.5% DMSO alone and positive control (lytic) samples include 10 μM Melittin and 1% Triton X-100.
Cell plates were incubated for 1 hour at 37° C. After the 1 hour incubation, the morphology of the cells is examined by microscope and then the plates were centrifuged at 1200 rpm for 5 minutes at room temperature. 40 μL of supernatant for each peptidomimetic macrocycle and control sample is transferred to clear assay plates. LDH release is measured using the LDH cytotoxicity assay kit from Caymen, catalog #1000882.

[2] = test system: Caspase 3; test: Caspase 3 detection assay in SJSA1 cells; assay type: cell-based; conditions: SJSA1, 48 h, Caspase 3 activation over DMSO-treated cells

| SMILES | 6.25 μM % Lysed cells (1 h LDH) [1] [%] | 25 μM % Lysed cells (1 h LDH) [1] [%] | 50 μM % Lysed cells (1 h LDH) [1] [%] | caspase 0.3 μM [2] | caspase 3 μM [2] | caspase 10 μM [2] | caspase 30 μM [2] |
| --- | --- | --- | --- | --- | --- | --- | --- |
| CC[C@H](C)[C@H](NC(=O)[C@H](C)NC(=O)[C@H](C)NC(=O)[C@]1(C)CCCC=CCCCCCC[C@@](C)(NC(=O)[C@H](Cc2ccccc2)NC(=O)[C@@H](NC(=O)[C@H](CC(C)C)NC(C)=O)[C@@H](C)O)C(=O)N[C@@H](C)C(=O)N[C@@H](Cc2ccc(O)cc2)C(=O)N[C@@H](Cc2c[nH]c3ccccc23)C(=O)N[C@@H](C)C(=O)N[C@@H](CCC(N)=O)C(=O)N[C@@H](CC(C)C)C(=O)N1)C(=O)N[C@H](CC(C)C)C(N)=O (single isomer, unassigned) [compound 82] | 0 | 0 | 1 |  |  |  |  |
| CC(=O)N[C@@H](CC(C)C)C(=O)N[C@H](C(=O)N[C@@H](Cc1ccccc1)C(=O)N[C@]1(C)CCCCCCC=CCCC[C@@](C)(C(=O)N[C@@H](C)C(=O)N[C@H](C(=O)NCC(N)=O)C(C)C)NC(=O)[C@H](CC(C)C)NC(=O)[C@H](CCC(N)=O)NC(=O)[C@H](C)NC(=O)[C@H](Cc2c[nH]c3ccccc23)NC(=O)[C@H](Cc2ccc(O)cc2)NC(=O)[C@H](C)NC1=O)[C@@H](C)O (single isomer, unassigned) [compound 108] | 0 | 0 | 1 |  |  |  |  |
| CC(=O)N[C@@H](CC(C)C)C(=O)N[C@H](C(=O)N[C@@H](Cc1ccccc1)C(=O)N[C@]1(C)CCCCCCC=CCCC[C@@](C)(C(=O)N[C@@H](CO)C(=O)N[C@@H](C)C(=O)N[C@@H](C)C(N)=O)NC(=O)[C@H](CC(C)C)NC(=O)[C@H](CCC(N)=O)NC(=O)[C@H](C)NC(=O)[C@H](Cc2c[nH]c3ccccc23)NC(=O)[C@H](Cc2ccc(C(=O)O)cc2)NC(=O)[C@H](C)NC1=O)[C@@H](C)O (single isomer, unassigned) [compound 169] | 2 | 3 | 7 |  |  |  |  |
| CC[C@H](C)[C@H](NC(=O)[C@H](C)NC(=O)[C@H](C)NC(=O)[C@]1(C)CCCC=CCCCCCC[C@@](C)(NC(=O)[C@H](Cc2ccccc2)NC(=O)[C@@H](NC(=O)[C@H](CCC(=O)O)NC(C)=O)[C@@H](C)O)C(=O)N[C@@H](CCC(=O)O)C(=O)N[C@@H](Cc2c[nH]cn2)C(=O)N[C@@H](Cc2c[nH]c3ccccc23)C(=O)N[C@@H](C)C(=O)N[C@@H](CCC(N)=O)C(=O)N[C@@H](CC(C)C)C(=O)N1)C(=O)N[C@H](C)C(N)=O (single isomer, unassigned) [compound 174] | 5 | 2 | 5 |  |  |  |  |
| CC[C@H](C)[C@H](NC(=O)[C@H](C)NC(=O)[C@H](C)NC(=O)[C@]1(C)CCCC=CCCCCCC[C@@](C)(NC(=O)[C@H](Cc2ccccc2)NC(=O)[C@@H](NC(=O)[C@H](CC(C)C)NC(C)=O)[C@@H](C)O)C(=O)N[C@@H](C)C(=O)N[C@@H](Cc2ccc(C(=O)O)cc2)C(=O)N[C@@H](Cc2c[nH]c3ccccc23)C(=O)N[C@@H](C)C(=O)N[C@@H](CCC(N)=O)C(=O)N[C@@H](CC(C)C)C(=O)N1)C(=O)N[C@H](C)C(N)=O (single isomer, unassigned) [compound 182] | 0 | 3 | 6 |  |  |  |  |
| CC[C@H](C)[C@H](NC(=O)[C@H](C)NC(=O)[C@H](C)NC(=O)[C@]1(C)CCCC=CCCCCCC[C@@](C)(NC(=O)[C@H](Cc2ccccc2)NC(=O)[C@@H](NC(=O)[C@H](CC(C)C)NC(C)=O)[C@@H](C)O)C(=O)N[C@@H](CCC(=O)O)C(=O)N[C@@H](Cc2ccc(O)cc2)C(=O)N[C@@H](Cc2c[nH]c3ccccc23)C(=O)N[C@@H](C)C(=O)N[C@@H](CCC(N)=O)C(=O)N[C@@H](CC(C)C)C(=O)N1)C(=O)N[C@H](C)C(N)=O (single isomer, unassigned) [compound 217] | 2 | 1 | 2 |  |  |  |  |
| CC(=O)N[C@@H](CC(C)C)C(=O)N[C@H](C(=O)N[C@@H](Cc1ccccc1)C(=O)N[C@]1(C)CCCCCCC=CCCC[C@@](C)(C(=O)N[C@@H](C)C(=O)N[C@@H](C)C(=O)NC(C)(C)C(=O)N[C@@H](C)C(N)=O)NC(=O)[C@H](CC(C)C)NC(=O)[C@H](CCC(N)=O)NC(=O)[C@H](C)NC(=O)[C@H](Cc2c[nH]c3ccccc23)NC(=O)[C@H](Cc2ccc(O)cc2)NC(=O)[C@H](C)NC1=O)[C@@H](C)O (single isomer, unassigned) [compound 232] | 6 | 5 | 5 |  |  |  |  |
| CC[C@H](C)[C@H](NC(=O)[C@H](C)NC(=O)[C@H](C)NC(=O)[C@]1(C)CCCC=CCCCCCC[C@@](C)(NC(=O)[C@H](Cc2ccccc2)NC(=O)[C@@H](NC(=O)[C@H](CC(C)C)NC(C)=O)[C@@H](C)O)C(=O)N[C@@H](CCC(=O)O)C(=O)N[C@@H](Cc2ccc(C(=O)O)cc2)C(=O)N[C@@H](Cc2c[nH]c3cc(Cl)ccc23)C(=O)N[C@@H](C)C(=O)N[C@@H](CCC(N)=O)C(=O)N[C@@H](CC2CCC2)C(=O)N1)C(=O)N[C@H](C)C(N)=O (single isomer, unassigned) [compound 335] | 0 | 0 | 1 |  |  |  |  |
| CC[C@H](C)[C@H](NC(=O)[C@H](C)NC(=O)[C@H](C)NC(=O)[C@]1(C)CCCC=CCCCCCC[C@@](C)(NC(=O)[C@H](Cc2ccccc2)NC(=O)[C@@H](NC(=O)[C@H](CC(C)C)NC(C)=O)[C@@H](C)O)C(=O)N[C@@H](CCC(=O)O)C(=O)N[C@@H](Cc2ccc(C(=O)O)cc2)C(=O)N[C@@H](Cc2c[nH]c3cc(Cl)ccc23)C(=O)N[C@@H](C)C(=O)N[C@@H](CCC(N)=O)C(=O)N[C@@H](CC2CCC2)C(=O)N1)C(=O)N[C@H](C)C(N)=O (single isomer, unassigned) [compound 336] | 0 | 0 | 0 |  |  |  |  |
| CC(=O)N[C@@H](CCC(=O)O)C(=O)N[C@H](C(=O)N[C@@H](Cc1ccccc1)C(=O)N[C@]1(C)CCCCCCC=CCCC[C@@](C)(C(=O)N[C@@H](C)C(=O)N[C@@H](C)C(=O)N[C@@H](C)C(=O)N[C@@H](C)C(=O)N[C@@H](C)C(=O)N[C@H](C)C(N)=O)NC(=O)[C@H](CC(C)C)NC(=O)[C@H](CCC(N)=O)NC(=O)[C@H](C)NC(=O)[C@H](Cc2c[nH]c3ccccc23)NC(=O)[C@H](Cc2ccc(O)cc2)NC(=O)[C@H](CCC(=O)O)NC1=O)[C@@H](C)O (single isomer, unassigned) [compound 340] | 0 | 0 | 0 |  |  |  |  |
| CCCC[C@H](NC(=O)[C@H](C)NC(=O)[C@H](CO)NC(=O)[C@]1(C)CCCC=CCCCCCC[C@@](C)(NC(=O)[C@H](Cc2ccccc2)NC(=O)[C@@H](NC(=O)[C@H](CC(C)C)NC(C)=O)[C@@H](C)O)C(=O)N[C@@H](C)C(=O)N[C@@H](Cc2ccc(O)cc2)C(=O)N[C@@H](Cc2c[nH]c3ccccc23)C(=O)N[C@@H](C)C(=O)N[C@@H](CCC(N)=O)C(=O)N[C@@H](CC(C)C)C(=O)N1)C(N)=O [compound 3] (Ac-LTF[R8]AYWAQL[S5]SA[Nle]-NH2; staple 4-11) | 1 | 1 | 3 |  |  |  |  |
| CC(=O)N[C@@H](CCC(=O)O)C(=O)N[C@H](C(=O)N[C@@H](Cc1ccccc1)C(=O)N[C@]1(C)CCCCCCC=CCCC[C@@](C)(C(=O)N[C@@H](CO)C(=O)N[C@@H](CC(C)C)C(=O)N[C@@H](C)C(N)=O)NC(=O)[C@H](CC(C)C)NC(=O)[C@H](CCC(N)=O)NC(=O)[C@H](C)NC(=O)[C@H](Cc2c[nH]c3ccccc23)NC(=O)[C@H](Cc2ccc(O)cc2)NC(=O)[C@H](C(C)C)NC1=O)[C@@H](C)O [compound 127] (Ac-ETF[R8]VYWAQL[S5]SLA-NH2; staple 4-11) |  |  |  | 1 | 1 | 4 | 13 |
| CCCC[C@H](NC(=O)[C@H](C)NC(=O)[C@H](C)NC(=O)[C@]1(C)CCCC=CCCCCCC[C@@](C)(NC(=O)[C@H](Cc2ccccc2)NC(=O)[C@@H](NC(=O)[C@H](CC(C)C)NC(C)=O)[C@@H](C)O)C(=O)N[C@@H](CCC(=O)O)C(=O)N[C@@H](Cc2ccc(O)cc2)C(=O)N[C@@H](Cc2c[nH]c3ccccc23)C(=O)N[C@@H](C)C(=O)N[C@@H](CCC(N)=O)C(=O)N[C@@H](CC2CCC2)C(=O)N1)C(=O)N[C@@H](C)C(N)=O [compound 238] (Ac-LTF[R8]EYWAQ[Cba][S5]AA[Nle]A-NH2; staple 4-11) |  |  |  | 1 | 2 | 4 | 21 |
| CC(=O)N[C@@H](CC(C)C)C(=O)N[C@H](C(=O)N[C@@H](Cc1ccccc1)C(=O)N[C@]1(C)CCCCCCC=CCCC[C@@](C)(C(=O)N[C@@H](CO)C(=O)N[C@@H](C)C(=O)N[C@@H](Cc2ccccc2)C(=O)N[C@@H](C)C(N)=O)NC(=O)[C@H](CC2CCC2)NC(=O)[C@H](CCC(N)=O)NC(=O)[C@H](C)NC(=O)[C@H](Cc2c[nH]c3ccccc23)NC(=O)[C@H](Cc2ccc(O)cc2)NC(=O)[C@H](CCC(=O)O)NC1=O)[C@@H](C)O [compound 242] (Ac-LTF[R8]EYWAQ[Cba][S5]SAFA-NH2; staple 4-11) |  |  |  | 1 | 4 | 5 | 18 |
